The values that follow come from BindingDB's records for doi:10.1016/j.chembiol.2017.02.003 (University of Colorado, 2017).

What all share (assay): Caspase Catalytic Activity Assay
Details in all cases: pH 7.4

One test deals with T1, Caspase-1 (Homo sapiens, UniProt P29466).
T1 sequence (P29466 whole entry): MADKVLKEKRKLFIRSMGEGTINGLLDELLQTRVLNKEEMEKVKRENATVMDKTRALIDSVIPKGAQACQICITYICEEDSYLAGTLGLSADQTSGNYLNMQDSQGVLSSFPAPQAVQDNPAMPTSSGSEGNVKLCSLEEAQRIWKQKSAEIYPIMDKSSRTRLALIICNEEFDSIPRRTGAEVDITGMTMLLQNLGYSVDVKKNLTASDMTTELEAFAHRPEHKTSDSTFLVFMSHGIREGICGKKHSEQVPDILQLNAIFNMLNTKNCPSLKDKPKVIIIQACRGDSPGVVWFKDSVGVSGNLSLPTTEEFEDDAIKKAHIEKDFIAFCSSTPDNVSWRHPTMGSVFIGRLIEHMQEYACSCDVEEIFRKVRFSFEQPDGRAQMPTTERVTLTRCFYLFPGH
On the procedure: (§1) ECB (Enzo Caspase Buffer): 50 mM HEPES (pH 7.4), 100 mM NaCl, 0.5% Tween 20, 10 mM DTT, and 10% glycerol; SCB (Standard Caspase Buffer): 20 mM PIPES (pH 7.5), 100 mM NaCl, 1 mM EDTA, 10 mM DTT, and 10% sucrose; HCB (High-Citrate Buffer): 50 mM Tris-HCl (pH 7.5), 1 M sodium citrate, 10 mM DTT, and 10% sucrose. Activity was measured as the change in luminescent signal for at least 30 min.

Another test has as its target T2, Caspase-9 (Homo sapiens, UniProt P55211).
T2 sequence (P55211 whole entry): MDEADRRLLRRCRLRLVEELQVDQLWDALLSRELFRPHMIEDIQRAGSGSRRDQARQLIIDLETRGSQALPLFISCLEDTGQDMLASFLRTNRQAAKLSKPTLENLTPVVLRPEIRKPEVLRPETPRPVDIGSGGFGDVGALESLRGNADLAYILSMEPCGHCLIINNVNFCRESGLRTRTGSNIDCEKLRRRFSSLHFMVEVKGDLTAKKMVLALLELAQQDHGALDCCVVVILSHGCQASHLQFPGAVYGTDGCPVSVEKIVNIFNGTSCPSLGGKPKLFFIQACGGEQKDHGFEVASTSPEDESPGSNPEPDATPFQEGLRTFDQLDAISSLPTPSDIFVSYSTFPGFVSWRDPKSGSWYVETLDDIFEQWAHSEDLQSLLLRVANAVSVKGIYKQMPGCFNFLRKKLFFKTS
On the procedure: as §1

For a further test, the target named is T3, Caspase-5 (Homo sapiens, UniProt P51878).
T3 sequence (P51878 whole entry): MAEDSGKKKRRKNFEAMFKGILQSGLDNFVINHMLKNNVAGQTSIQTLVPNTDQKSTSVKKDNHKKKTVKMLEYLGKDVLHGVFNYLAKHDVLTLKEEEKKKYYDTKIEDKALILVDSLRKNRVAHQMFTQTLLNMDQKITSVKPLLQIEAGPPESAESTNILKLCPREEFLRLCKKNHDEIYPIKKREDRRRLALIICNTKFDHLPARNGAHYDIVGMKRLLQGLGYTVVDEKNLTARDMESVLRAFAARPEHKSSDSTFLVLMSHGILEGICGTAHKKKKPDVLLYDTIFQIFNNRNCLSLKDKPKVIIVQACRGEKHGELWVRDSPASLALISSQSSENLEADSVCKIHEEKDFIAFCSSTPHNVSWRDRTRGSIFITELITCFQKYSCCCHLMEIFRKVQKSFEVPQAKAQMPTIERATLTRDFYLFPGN
As for the experimental part:
as §1

Another test deals with T4, Caspase-4 (Homo sapiens, UniProt P49662).
T4 sequence (P49662 whole entry): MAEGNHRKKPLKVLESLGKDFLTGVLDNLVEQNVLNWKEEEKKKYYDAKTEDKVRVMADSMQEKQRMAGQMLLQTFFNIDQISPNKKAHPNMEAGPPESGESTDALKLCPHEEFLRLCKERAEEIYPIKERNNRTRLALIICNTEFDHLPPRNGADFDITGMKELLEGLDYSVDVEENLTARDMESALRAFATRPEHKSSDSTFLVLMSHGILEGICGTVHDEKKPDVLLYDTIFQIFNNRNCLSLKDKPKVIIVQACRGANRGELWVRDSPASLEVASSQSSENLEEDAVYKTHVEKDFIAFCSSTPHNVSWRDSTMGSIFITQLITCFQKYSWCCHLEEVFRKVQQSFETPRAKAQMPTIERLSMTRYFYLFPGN
On the procedure: as §1

For another test, the target named is T5, Caspase-3 (Homo sapiens, UniProt P42574).
T5 sequence (P42574 whole entry): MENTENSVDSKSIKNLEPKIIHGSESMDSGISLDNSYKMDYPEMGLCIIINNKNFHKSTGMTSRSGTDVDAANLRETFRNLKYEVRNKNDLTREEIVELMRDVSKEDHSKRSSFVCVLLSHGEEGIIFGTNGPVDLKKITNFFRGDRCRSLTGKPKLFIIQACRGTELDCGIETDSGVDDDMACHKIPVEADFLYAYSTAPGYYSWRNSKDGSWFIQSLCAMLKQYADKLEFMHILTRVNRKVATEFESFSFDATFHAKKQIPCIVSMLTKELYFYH
On the procedure: as §1

The IC50 is the concentration that inhibits the measured activity by half.

With `O=C(c1ccccc1)c1ccc2n1CCC2C(=O)O` (stereo not given) [Toradol], the IC50 was 18 µM against Caspase-1; 0.85 µM against Caspase-9; 1 µM at Caspase-5; 0.86 µM against Caspase-4; 2.5 µM against Caspase-3.

With `CC(C(=O)O)c1ccc(C(=O)c2ccccc2)s1` (stereo not given) [Tiaprofenic acid], the IC50 on Caspase-1 was determined as 1.6 µM; on Caspase-9 it was 2.2 µM; at Caspase-5, 0.47 µM; on Caspase-4 it was 0.38 µM; on Caspase-3, 0.81 µM.

Consider `CC(C(=O)O)c1ccc(N2Cc3ccccc3C2=O)cc1` (stereo not drawn) [(+)-2-(4-(1-oxoisoindolin-2-yl)phenyl)propanoic acid], for which the half-inhibitory concentration (IC50) was determined as 3.6 µM on Caspase-1; 0.3 µM against Caspase-9; 0.59 µM against Caspase-5; 0.57 µM at Caspase-4; 1.4 µM against Caspase-3.

Turning to `CC(C(=O)O)c1cccc(C(=O)c2ccccc2)c1` (stereo not given) [2-(3-benzoylphenyl)propanoic acid], the IC50 at Caspase-1 is over 66 µM; at Caspase-9, 10 µM; on Caspase-5, 10 µM; against Caspase-4 it was 10 µM; on Caspase-3, 50 µM.

With `O=C(O)CCC(=O)c1ccc(-c2ccccc2)cc1` [3-(4-biphenylylcarbonyl)propionic acid], the IC50 against Caspase-1 was determined as 4.4 µM; at Caspase-9, 0.76 µM; on Caspase-5, 0.87 µM; against Caspase-4 it was 0.57 µM; on Caspase-3, 1.2 µM.

For the compound `COc1ccc2cc([C@H](C)C(=O)O)ccc2c1` [(2S)-2-(6-methoxynaphthalen-2-yl)propanoic acid], the IC50 against Caspase-1 is over 66 µM; against Caspase-9, 10 µM; against Caspase-5 it was 11 µM; against Caspase-4, 15 µM; on Caspase-3, 55 µM.

Regarding `O=C(O)Cc1ccc(-c2ccccc2)cc1` [Felbinac], the IC50 at Caspase-1 turned out to be 35 µM; against Caspase-9, 1.8 µM; against Caspase-5, 2.6 µM; against Caspase-4 it was 2 µM; against Caspase-3 it was 14 µM.
